Results taken from the supplement of paper PMC10307832.

Tests used:
Experiment in all cases: relative viability (nuclei count vs DMSO), 5 days (fraction); higher = more cells survive
[1] = compound: CS(=O)(=O)c1ccc(C(=O)Nc2ccc(Cl)c(-c3ccccn3)c2)c(Cl)c1 [Vismodegib] + C[C@@H](Oc1cc(-c2cnn(C3CCNCC3)c2)cnc1N)c1c(Cl)ccc(F)c1Cl [Crizotinib] (partner 1 µM)
In short: (§1)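 Nuclei were stained with Hoechst during a one-step fixation (final 0.05% Triton X-100, 1% formaldehyde, 1 ug/ml Hoechst) carried out 5 days after dosing, then counted on 4× images. The cells, lung cancer lines in 1536-well plates, had been dosed by pin tool the day after seeding with one drug alone or a fixed anchor-drug dose plus five library-drug doses (not always all listed) in √10 steps. Relative viability is the nuclei count in treated wells divided by that in vehicle wells, and each value is the median of duplicate plates.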

[2] = compound: CS(=O)(=O)c1ccc(C(=O)Nc2ccc(Cl)c(-c3ccccn3)c2)c(Cl)c1 [Vismodegib] + COc1cccc2cc(-c3nc([C@H]4CC[C@H](C(=O)O)CC4)n4ncnc(N)c34)[nH]c12 [OSI-027] (partner 0.5 µM)
In short: as §1

[3] = compound: CS(=O)(=O)c1ccc(-c2cnc(N)c(C(=O)Nc3ccccc3)n2)cc1 [VE-821] + C[C@]1(O)C[C@@H](c2nc(-c3ccc4ccc(-c5ccccc5)nc4c3)c3c(N)nccn32)C1 [Linsitinib] (partner 1 µM)
In short: as §1

[4] = compound: CS(=O)(=O)c1ccc(C(=O)Nc2ccc(Cl)c(-c3ccccn3)c2)c(Cl)c1 [Vismodegib] + CC1(C)CCC(c2ccc(Cl)cc2)=C(CN2CCN(c3ccc(C(=O)NS(=O)(=O)c4ccc(N[C@H](CCN5CCOCC5)CSc5ccccc5)c(S(=O)(=O)C(F)(F)F)c4)cc3)CC2)C1 [Navitoclax] (partner 0.5 µM)
In short: as §1

## UMC-11
[1]; first compound 0.08 µM
  relative viability: 0.57
[1]; first compound 0.253 µM
  relative viability: 0.56
[1]; first compound 0.8 µM
  relative viability: 0.723
[1]; first compound 2.53 µM
  relative viability: 0.606
[1]; first compound 8 µM
  relative viability: 0.652
[2]; first compound 0.08 µM
  relative viability: 0.499
[2]; first compound 0.253 µM
  relative viability: 0.468
[2]; first compound 0.8 µM
  relative viability: 0.408
[2]; first compound 2.53 µM
  relative viability: 0.43
[2]; first compound 8 µM
  relative viability: 0.46
[3]; first compound 0.08 µM
  relative viability: 1.14
[3]; first compound 0.253 µM
  relative viability: 1.03
[3]; first compound 0.8 µM
  relative viability: 1.06
[3]; first compound 2.53 µM
  relative viability: 1.04
[3]; first compound 8 µM
  relative viability: 0.533
[4]; first compound 0.08 µM
  relative viability: 0.321
[4]; first compound 0.253 µM
  relative viability: 0.313
[4]; first compound 0.8 µM
  relative viability: 0.296
[4]; first compound 2.53 µM
  relative viability: 0.29
[4]; first compound 8 µM
  relative viability: 0.305
